# Source: patent publication US9969887B2, “Merocyanine-based compounds, and dyes, kits and contrast medium compositions for labelling biomolecules comprising the same” (SFC CO., LTD., priority 2016, dated 2018)
# Entries after “also recorded” stand apart in the source; their conditions may differ.
# How the values were obtained:
# [1] = test system: DNA; experiment: Absorption and emission spectra and quantum efficiency in the presence of DNA; format: physicochemical
# Description: Absorption spectra (λabs), emission spectra (λem) and quantum efficiency measured in the presence of DNA with compounds 1 to 8 and 36 to 39, and commercially available SYBR® safe were measured and are shown in Table 3 below.
# [2] = Absorption and emission spectra, molar extinction coefficient and quantum efficiency in solvent; format: physicochemical
# Description: Absorption spectra (λabs), emission spectra (λem), molar extinction coefficient (ε) and quantum efficiency of compounds 1 to 8 obtained in Preparation Examples 1 to 4, and commercially available SYBR® safe were measured and shown in Table 1 below.
# Absorption spectra (λabs), emission spectra (λem), molar extinction coefficient (ε) and quantum efficiency of Compounds 36 to 39 obtained in Preparation Examples 6 and 7 and commercially available SYBR® safe were measured and shown in Table 2 below.
# [3] = Photobleaching test; format: physicochemical; settings: low concentration
# Description: Real-Time PCR was performed in a 20 μL reaction solution containing only 5 μL of fluorescent dyes (Compound 38, SYBR® green I (Invitrogen) or EvaGreen™ (Biotium)) at various concentrations (dilution times). Cycles of 30 seconds at 25° C. and 30 seconds at 25° C. were repeated 60 times. Fluorescence intensity was measured for each cycle (1 minute) to observe photobleaching of fluorescent dyes at various concentrations (dilution times).
# [4] = test system: Salmonella typhimurium TA98 strain; experiment: Ames test with S9 mixture; settings: for Number of colonies per plate: TA98, S9 mixture
# [5] = Thermal stability test, absorbance on standing at 95° C. in PCR reaction buffer; format: physicochemical
# Description: In order to confirm the stability of the fluorescent dye in the PCR reaction, 20 μL of PCR reaction buffer containing 1 μL of Compound 38 and 1 μL of EvaGreen™ (Biotium), respectively, was prepared. Each PCR reaction buffer was heated to 95° C., and the absorbance which varies with the standing time at 95° C. was measured.
# [6] = test system: Hela cells; experiment: Cell permeability test; format: cell-based; settings: 1 μM, 37° C., 30 minutes, microscope
# Description: Hela cells were cultured in MEM medium containing 10% fetal bovine serum (FBS) and 1% penicillin/streptomycin (10,000 units penicillin and 10,000 μg/mL streptomycin, Invitrogen) under a humidified atmosphere of CO2 at 37° C. Hela cells were washed with medium No. 3, and 1 μM of SYBR® safe and Compound 6 were treated with Hela Cells and cultured at 37° C. for 30 minutes.
SMILES,Quantum efficiency [1],λabs [1] [nm],λem [1] [nm],Quantum efficiency ([2]; DMSO),ε (molar extinction coefficient) ([2]; DMSO),λabs ([2]; DMSO) [nm],λem ([2]; DMSO) [nm],Quantum efficiency ([2]; buffer),ε (molar extinction coefficient) ([2]; buffer),λabs ([2]; buffer) [nm],λem ([2]; buffer) [nm],other results
O=C(CCCCCN1C=CC2=C3c4sc5ccc(Cl)cc5[n+]4CCC3Oc3cccc1c32)NCCOCCNC(=O)CCCCCN1C=CC2=C3c4sc5ccc(Cl)cc5[n+]4CCC3Oc3cccc1c32 (stereo not shown) [Compound 5],0.86,517,537,0.64,"73,000 M^−1cm^−1",517,564,0.05,"60,000 M^−1cm^−1",484,562,–
CCCN(CCCN(C)C)c1cc(/C=C2/Sc3ccccc3N2C)c2ccccc2[n+]1-c1ccccc1 [SYBR ® green I],–,–,–,–,–,–,–,–,–,–,–,half-life (photobleaching) [3]: 5.5 h
O=C(CCCCCN1C=CC2=C3c4sc5ccc(Cl)cc5[n+]4CCC3Oc3cccc1c32)NCCOCCOCCNC(=O)CCCCCN1C=CC2=C3c4sc5ccc(Cl)cc5[n+]4CCC3Oc3cccc1c32 (stereo not shown) [Compound 6],0.73,517,538,0.62,"70,000 M^−1cm^−1",517,563,0.04,"60,000 M^−1cm^−1",484,564,"Number of colonies per plate ([4]; 8 μg/plate): 24 ± 6; Number of colonies per plate ([4]; 40 μg/plate): 57 ± 3; genotoxicity (Ames test), in words ([4]; TA98, S9 metabolic activity): no significant increase in colony counts; also recorded: lower genotoxicity than SYBR® safe"
O=C(CCCCCN1C=CC2=C3c4sc5ccc(Cl)cc5[n+]4CCC3Oc3cccc1c32)NCCOCCOCCOCCNC(=O)CCCCCN1C=CC2=C3c4sc5ccc(Cl)cc5[n+]4CCC3Oc3cccc1c32 (stereo not shown) [Compound 7],0.71,517,538,0.64,"83,000 M^−1cm^−1",517,563,0.06,"75,000 M^−1cm^−1",484,560,–
O=C(CCCCCN1C=CC2=C3c4sc5ccccc5[n+]4CCC3Oc3cccc1c32)NCCOCCOCCOCCNC(=O)CCCCCN1C=CC2=C3c4sc5ccccc5[n+]4CCC3Oc3cccc1c32 (stereo not shown) [Compound 4],0.88,517,539,0.73,"95,000 M^−1cm^−1",517,565,0.03,"85,000 M^−1cm^−1",484,566,–
O=C(CCCCCN1C=CC2=C3c4oc5ccccc5[n+]4CCC3Oc3cccc1c32)NCCOCCOCCOCCNC(=O)CCCCCN1C=CC2=C3c4oc5ccccc5[n+]4CCC3Oc3cccc1c32 (stereo not shown) [Compound 38],0.76,492,512,0.67,"110,000 M^−1cm^−1",492,520,0.17,"95,000 M^−1cm^−1",459,522,"high temperature stability ([5]; 95° C., compared with EvaGreen): greater than EvaGreen™; Absorbance ([5]; standing time 0 hr at 95° C.): 0.127; Absorbance ([5]; standing time 0.5 hr at 95° C.): 0.149; Absorbance ([5]; standing time 1 hr at 95° C.): 0.162; Absorbance ([5]; standing time 2 hr at 95° C.): 0.163; Absorbance ([5]; standing time 3 hr at 95° C.): 0.178"
O=C(CCCCCN1C=CC2=C3c4sc5ccccc5[n+]4CCC3Oc3cccc1c32)NCCCOCCOCCOCCCNC(=O)CCCCCN1C=CC2=C3c4sc5ccccc5[n+]4CCC3Oc3cccc1c32 (stereo not shown) [Compound 2],0.93,517,541,0.88,"101,000 M^−1cm^−1",517,566,0.08,"83,000 M^−1cm^−1",484,565,–
O=C(CCCCCN1C=CC2=C3c4oc5ccccc5[n+]4CCC3Oc3cccc1c32)NCCOCCNC(=O)CCCCCN1C=CC2=C3c4oc5ccccc5[n+]4CCC3Oc3cccc1c32 (stereo not shown) [Compound 36],0.67,492,511,0.65,"95,000 M^−1cm^−1",492,520,0.12,"83,000 M^−1cm^−1",458,526,–
O=C(CCCCCN1C=CC2=C3c4sc5ccc(Cl)cc5[n+]4CCC3Oc3cccc1c32)NCCCOCCOCCOCCCNC(=O)CCCCCN1C=CC2=C3c4sc5ccc(Cl)cc5[n+]4CCC3Oc3cccc1c32 (stereo not shown) [Compound 8],0.80,517,538,0.71,"89,000 M^−1cm^−1",517,563,0.04,"78,000 M^−1cm^−1",484,565,–
"CC[n+]1c(-c2ccccc2)c2cc(N)ccc2c2ccc(N)cc21.[Br-] [EtBr, ethidium bromide, reference compound]",–,–,–,–,–,–,–,–,–,–,–,Number of colonies per plate ([4]; 40 μg/plate): 3051 ± 181
O=C(CCCCCN1C=CC2=C3c4sc5ccccc5[n+]4CCC3Oc3cccc1c32)NCCOCCOCCNC(=O)CCCCCN1C=CC2=C3c4sc5ccccc5[n+]4CCC3Oc3cccc1c32 (stereo not shown) [Compound 3],0.86,517,540,0.55,"84,000 M^−1cm^−1",517,565,0.03,"66,000 M^−1cm^−1",484,564,–
O=C(CCCCCN1C=CC2=C3c4oc5ccccc5[n+]4CCC3Oc3cccc1c32)NCCCOCCOCCOCCCNC(=O)CCCCCN1C=CC2=C3c4oc5ccccc5[n+]4CCC3Oc3cccc1c32 (stereo not shown) [Compound 39],0.70,492,513,0.70,"116,000 M^−1cm^−1",492,520,0.15,"98,000 M^−1cm^−1",459,523,–
"CCC[n+]1ccc(/C=C2\Sc3ccccc3N2C)c2ccccc21 [SYBR ® safe, reference compound]",0.021,503,535,0.006,"77,000 M^−1cm^−1",509,–,0.006,"57,000 M^−1cm^−1",502,–,cell permeability [6]: shows cell permeability; Number of colonies per plate ([4]; 1.6 μg/plate): 81 ± 7
O=C(CCCCCN1C=CC2=C3c4oc5ccccc5[n+]4CCC3Oc3cccc1c32)NCCOCCOCCNC(=O)CCCCCN1C=CC2=C3c4oc5ccccc5[n+]4CCC3Oc3cccc1c32 (stereo not shown) [Compound 37],0.64,492,512,0.63,"100,000 M^−1cm^−1",492,520,0.14,"85,000 M^−1cm^−1",458,524,–
O=C(CCCCCN1C=CC2=C3c4sc5ccccc5[n+]4CCC3Oc3cccc1c32)NCCOCCNC(=O)CCCCCN1C=CC2=C3c4sc5ccccc5[n+]4CCC3Oc3cccc1c32 (stereo not shown) [Compound 1],1.00,517,541,0.52,"109,000 M^−1cm^−1",517,567,0.03,"92,000 M^−1cm^−1",484,568,–
